Experimental data: patent US20060217305A1, “Induction of tumor cell senescence by retinoid receptor agonists and antagonists” (Ordway Research Institute, Inc., priority 2005, published 2006)

Tested on: MCF-7 cells, human transcripts
Experiment: Affymetrix U133 2.0 Plus microarray analysis of gene expression
Assay type: cell-based
Protocol: FIG. 4 depicts microarray analysis of changes in gene expression in MCF-7 cells treated with RAR agonist LGD1550 or RAR antagonist LG100815, plotted using GeneSpring software. The X axis represents different time points of treatment with RAR ligands (0 point correspond to cells cultured for 3 days with DMSO carrier).
To determine the effects of the RAR agonist and antagonist on the expression of essentially all the human genes, MCF-7 cells were treated with 100 nM of RAR agonist LGD1550 or 10 μM of RAR antagonist LG100815, concentrations that provide maximal induction of gene expression according to Q-PCR assays (as discussed above). Cells were treated for 24, 48 or 72 hrs, and total RNA from the untreated or treated cells was isolated using Qiagen's RNeasy Total RNA Isolation Kit. For gene expression profiling, RNA samples were provided to the microarray service facility of the Wadsworth Center Genomics Institute, which carried out biotinylated target preparation and hybridization with Affymetrix U 133 2.0 Plus oligonucleotide microarrays containing 56,000 probe sets representing 48,500 human transcripts. The hybridization signals were normalized using GCRMA procedure and analyzed using GeneSpring software (Silicone Genetics). […] The effects of the agonist and the antagonist also agreed with the results of the earlier analysis of the effects of RA on MCF-7 cells, with all 13 genes previously shown by RT-PCR to be induced in that system (Dokmanovic et al., 2002) also showing induction in the present microarray analysis (FIG. 4b).
RNA or protein products of genes that are induced to a similar level by both the RAR agonist and the RAR antagonist can be used as reporters in screening for compounds with properties similar to LG0100815. RNA or protein products of genes from this group (or promoter constructs for such genes) can be used as reporters in screening for compounds that mimic the effect of retinoids. Table 3, as shown below, lists a set of 508 genes chosen as preferred reporters. These genes were selected by being strongly (at least 2-fold) induced by both the agonist and the antagonist relative to untreated cells and showing no more than two-fold difference between their induction by the agonist and the antagonist. 62 genes listed at the top of Table 3 are particularly preferred reporters, as they are most strongly (at least 4-fold) induced by both the agonist and the antagonist. Table 4, as shown below, lists a set of 53 genes that can be used as preferred markers to discriminate between RARE-dependent and RARE-independent induction of transcription. These genes were chosen by being induced at least 3-fold by the agonist relative to untreated cells and also showing at least 4 times stronger induction by the agonist than by the antagonist. FIG. 6 plots the maximal fold induction of gene expression produced by the agonist versus that produced by the antagonist for the genes listed in Table 3 (particularly preferred reporters only) and in Table 4, with the corresponding trend lines. The relative effects of a tested compound on the genes in Table 3 and Table 4 should indicate whether the compound behaves as a RAR agonist or RAR antagonist. For example, one can select matching pairs of genes from Table 3 and Table 4 that are induced by the agonist to approximately the same degree. A compound that mimics the effects of the agonist should induce such genes to a similar level, whereas a compound that behaves like an antagonist should induce the gene from Table 3 to a much greater degree than the gene from Table 4.

CC(/C=C/C=C(\C)c1cc(C(C)(C)C)cc(C(C)(C)C)c1)=C\C(=O)O [LGD1550]
Maximal effect, Fold induction (gene FLJ32096, Genbank AK056658, probe 1555870_at): 2.98 fold | Maximal effect, Fold induction (gene FOXO3A, Genbank N25732, probe 204131_s_at): 2.53 fold | Maximal effect, Fold induction (gene GALNT7, Genbank BF699855, probe 222587_s_at): 2.51 fold | Maximal effect, Fold induction (gene GUCY1B2, Genbank NM_004129, probe 220506_at): 2.63 fold | Maximal effect, Fold induction (gene HIG2, Genbank NM_013332, probe 218507_at): 2.19 fold | Maximal effect, Fold induction (gene HNRPL, Genbank X16135, probe 35201_at): 2.16 fold | Maximal effect, Fold induction (gene INPP1, Genbank NM_002194, probe 202794_at): 2.01 fold | Maximal effect, Fold induction (gene INSIG1, Genbank BG292233, probe 201626_at): 2.04 fold | Maximal effect, Fold induction (gene JMJD3, Genbank AB002344, probe 41386_i_at): 2.48 fold | Maximal effect, Fold induction (gene KIAA1219, Genbank BG236163, probe 221738_at): 2.03 fold | Maximal effect, Fold induction (gene LCP1, Genbank J02923, probe 208885_at): 2.25 fold | Maximal effect, Fold induction (gene LGALS8, Genbank L78132, probe 208935_s_at): 2.79 fold | Maximal effect, Fold induction (gene LOC23117, Genbank AL047052, probe 235060_at): 2.00 fold | Maximal effect, Fold induction (gene LOC55971, Genbank AA496034, probe 227372_s_at): 2.09 fold | Maximal effect, Fold induction (gene LOC158402, Genbank BE504242, probe 236769_at): 2.00 fold | Maximal effect, Fold induction (gene LOC284408, Genbank AW467077, probe 235779_at): 2.03 fold | Maximal effect, Fold induction (gene MAML2, Genbank AI769569, probe 235457_at): 3.92 fold | Maximal effect, Fold induction (gene MAP3K1, Genbank AA541479, probe 225927_at): 2.05 fold | Maximal effect, Fold induction (gene MDM4, Genbank NM_002393, probe 205655_at): 2.06 fold | Maximal effect, Fold induction (gene MGC9850, Genbank BE378670, probe 224857_s_at): 2.58 fold | Maximal effect, Fold induction (gene MICAL2, Genbank BE965029, probe 212473_s_at): 2.01 fold | Maximal effect, Fold induction (gene MT1X, Genbank NM_005952, probe 208581_x_at): 3.10 fold | Maximal effect, Fold induction (gene NEDD9, Genbank AL136139, probe 202149_at): 2.24 fold | Maximal effect, Fold induction (gene NQO1, Genbank AI039874, probe 201467_s_at): 2.56 fold | Maximal effect, Fold induction (gene NR3C1, Genbank AI432196, probe 201865_x_at): 2.08 fold | Maximal effect, Fold induction (gene PARVA, Genbank NM_018222, probe 217890_s_at): 2.17 fold | Maximal effect, Fold induction (gene PRDM15, Genbank AP001745, probe 225539_at): 2.04 fold | Maximal effect, Fold induction (gene PRSS23, Genbank NM_007173, probe 202458_at): 2.05 fold | Maximal effect, Fold induction (gene PSMD7, Genbank AW361702, probe 238738_at): 2.04 fold | Maximal effect, Fold induction (gene PTK9, Genbank N25562, probe 214008_at): 2.05 fold | Maximal effect, Fold induction (gene QDPR, Genbank BC000576, probe 209123_at): 2.02 fold | Maximal effect, Fold induction (gene S100P, Genbank NM_005980, probe 204351_at): 2.33 fold | Maximal effect, Fold induction (gene SGPL1, Genbank NM_003901, probe 208381_s_at): 2.14 fold | Maximal effect, Fold induction (gene SLC35D2, Genbank AJ005866, probe 213083_at): 2.73 fold | Maximal effect, Fold induction (gene SMAD5, Genbank AI439752, probe 235451_at): 2.30 fold | Maximal effect, Fold induction (gene STYX, Genbank BG390493, probe 244030_at): 2.01 fold | Maximal effect, Fold induction (gene SUOX, Genbank NM_000456, probe 1553030_a_at): 2.05 fold | Maximal effect, Fold induction (gene TACSTD2, Genbank J04152, probe 202286_s_at): 2.17 fold | Maximal effect, Fold induction (gene TEAD2, Genbank AA337048, probe 238323_at): 2.81 fold | Maximal effect, Fold induction (gene TGFB2, Genbank AU145950, probe 228121_at): 2.04 fold | Maximal effect, Fold induction (gene TLE3, Genbank AI567426, probe 212769_at): 2.72 fold | Maximal effect, Fold induction (gene TMEM42, Genbank BF056095, probe 226361_at): 2.47 fold | Maximal effect, Fold induction (gene TNFAIP2, Genbank NM_006291, probe 202510_s_at): 2.41 fold | Maximal effect, Fold induction (gene TRIO, Genbank AV718192, probe 209012_at): 2.07 fold | Maximal effect, Fold induction (gene UROS, Genbank NM_000375, probe 203031_s_at): 2.13 fold | Maximal effect, Fold induction (gene USP24, Genbank BF444943, probe 212381_at): 2.01 fold | Maximal effect, Fold induction (gene VHL, Genbank BF972755, probe 1559227_s_at): 2.05 fold | Maximal effect, Fold induction (gene WIG1, Genbank NM_022470, probe 219628_at): 2.30 fold | Maximal effect, Fold induction (gene ZNF26, Genbank BC046206, probe 1555325_s_at): 2.03 fold | Maximal effect, Fold induction (gene ZNF281, Genbank AA121673, probe 228785_at): 2.28 fold | Maximal effect, Fold induction (gene ZNF286, Genbank BM968434, probe 1557684_at): 2.29 fold
